Entries after “also recorded” stand apart in the source; their conditions may differ.
Columns and labels:
[1] = tested on: human isoform of PKC (protein kinase C) beta 1 tagged with GFP; experiment: Type 1 redistribution assay (PKC beta 1-GFP, ATP stimulus) on FLIPR; format: cell-based; conditions: for increase in the measurable response, type 1 redistribution: summary, enhancer added to extracellular medium, FLIPR
Description: (§1) The CHO (Chinese hamster ovary) cell line stably expressing the human isoform of PKC (protein kinase C) beta 1 tagged with GFP (green fluorescent protein)in its C-terminal end and the human RACK1 (receptor for activated C kinase) was cultured in 96-well microtiter plates (Packard View-Plate). After 20 min preincubation in KRW (experimental buffer; A modified Krebs-Ringer buffer containing (in mM): NaCl 140, KCl 3.6, NaH2PO4 0.5, MgSO4 0.5, NaHCO3 2.0, CaCl2 1.5 and HEPES 10, D-glucose 5 (pH 7.4, titrated with 1M NaOH)) the cell plate was supplemented with a concentration gradient of Trypan Blue at 0, 10, 50, 100 and 200 μM (4 wells per compound and concentration) and placed in the FLIPR™. Subsequently the cells were stimulated in the FLIPR™ with 100 μM ATP. This gives a Type 1 redistribution response (see FIG. 6) in these cells where the redistribution can be quantified as a reduction in fluorescence intensity, as PKC beta 1 moves from the cytosol to the membrane, during the first 1-2 minutes of stimulation. […] All data were corrected for background by subtraction of a background trace based on 16 individual background traces and normalized to 1 at the point of addition of 100 μM ATP.
as §1, with “Acid Red 88” for “Trypan Blue”
The CHO (Chinese hamster ovary) cell line stably expressing the human isoform of PKC (protein kinase C) beta 1 tagged with GFP (green fluorescent protein) in its C-terminal end and the human RACK1 (receptor for activated C kinase) was cultured in 96-well microtiter plates (Packard View-Plate). After 20 min preincubation in KRW (experimental buffer; A modified Krebs-Ringer buffer containing (in mM): NaCl 140, KCl 3.6, NaH2PO4 0.5, MgSO4 0.5, NaHCO3 2.0, CaCl2 1.5 and HEPES 10, D-glucose 5 (pH 7.4, titrated with 1M NaOH)) the cell plate was supplemented with a concentration gradient of Trypan Blue, Acid Red 88 and Orange G at 0, 10, 50, 100 and 200 μM (4 wells per compound and concentration) and placed in the FLIPR™. Subsequently the cells were stimulated in the FLIPR™ with 100 μM ATP. This gives a Type 1 redistribution response (see FIG. 6) in these cells where the redistribution can be quantified as a reduction in fluorescence intensity, as PKC beta 1 moves from the cytosol to the membrane, during the first 1-2 minutes of stimulation. All data were corrected for background by subtraction of a background trace based on 16 individual background traces and normalized to 1 at the point of addition of 100 μM ATP. The data points represent the average of four determinations+SD. […]

[2] = tested on: PH-domain (pleckstrin homology) of the human isoform of PLC (phospho-lipase C) delta tagged with GFP; experiment: Type 3 redistribution assay (PLC delta PH-domain-GFP, ATP stimulus) on FLIPR; format: cell-based; conditions: for increase in the measurable response, type 3 redistribution: summary, enhancer added to extracellular medium, FLIPR
Description: The CHO (Chinese hamster ovary) cell line stably expressing the PH-domain (pleckstrin homology) of the human isoform of PLC (phospho-lipase C) delta tagged with GFP (green fluorescent protein) in its C-terminal end was cultured in 96-well microtiter plates (Packard View-Plate). After 20 min preincubation in KRW (experimental buffer; A modified Krebs-Ringer buffer containing (in mM): NaCl 140, KCl 3.6, NaH2PO4 0.5, MgSO4 0.5, NaHCO3 2.0, CaCl2 1.5 and HEPES 10, D-glucose 5 (pH 7.4, titrated with 1M NaOH)) the cell plate was supplemented with 100 μM Trypan Blue in one half and 10 μM Acid Red 88 in the other half of the wells and placed in the FLIPR™. Subsequently the cells were stimulated in the FLIPR™ with a range of ATP concentrations starting with 300 μM and lower by a threefold reduction of concentration in each dilution step. This gives a Type 3 redistribution response (see FIG. 6) in these cells where the redistribution can be quantified as an increase in fluorescence intensity, as the PH-domain of PLC delta 1 moves from the membrane to the cytosol, during the first 1-2 minutes of stimulation. FIG. 4 summarizes this experiment. All data were corrected for background by subtraction of a background trace based on 4 individual background traces. The data points represent the average of four determinations+SD. The data were extracted as the maximal change during the first minute of stimulation (Smax-Smin).
The CHO (Chinese hamster ovary) cell line stably expressing the PH-domain (pleckstrin homology) of the human isoform of PLC (phospho-lipase C) delta tagged with GFP (green fluorescent protein) in its C-terminal end was cultured in 96-well microtiter plates (Packard View-Plate). After 20 min preincubation in KRW (experimental buffer; A modified Krebs-Ringer buffer containing (in mM): NaCl 140, KCl 3.6, NaH2PO4 0.5, MgSO4 0.5, NaHCO3 2.0, CaCl2 1.5 and HEPES 10, D-glucose 5 (pH 7.4, titrated with 1M NaOH)) the cell plate was supplemented with 100 μM Trypan Blue in one half and 20 μM Acid Red 88 in the other half of the wells and placed in the FLIPR. Subsequently the cells were stimulated in the FLIPR with 100 μM ATP. This gives a Type 3 redistribution response (see FIG. 6) in these cells where the redistribution can be quantified as an increase in fluorescence intensity, as the PH-domain of PLC delta 1 moves from the membrane to the cytosol, during the first 1-2 minutes of stimulation. FIG. 4 summarizes this experiment. It can be seen that Acid Red 88 in this case maximally gives about a 6-7-fold increase in signal over the one obtained with Trypan Blue.

[3] = tested on: mouse cPKA (catalytic subunit of protein kinase A) tagged with GFP; experiment: Type 2 redistribution assay (cPKA-GFP, Forskolin stimulus) on FLIPR; format: cell-based; conditions: for effect on type 2 redistribution response: CHO cells, concentration gradient of dye
Description: The CHO (Chinese hamster ovary) cell line stably expressing the mouse cPKA (catalytic subunit of protein kinase A) tagged with GFP (green fluorescent protein) in its N-terminal end was cultured in 96-well microtiter plates (Packard View-Plate). After 20 min preincubation in KRW (experimental buffer; A modified Krebs-Ringer buffer containing (in mM): NaCl 140, KCl 3.6, NaH2PO4 0.5, MgSO4 0.5, NaHCO3 2.0, CaCl2 1.5 and HEPES 10, D-glucose 5 (pH 7.4, titrated with 1M NaOH)) the cell plate was supplemented with a concentration gradient of Trypan Blue and Acid Red 88 (4 wells per compound and concentration) and placed in the FLIPR™. Subsequently the cells were stimulated in the FLIPR™ with 10 μM Forskolin. This gives a Type 2 redistribution response (see FIG. 6) in these cells where the redistribution can be quantified as an increase in fluorescence intensity, as cPKA moves from aggregates in the cytosol to a dispersed form in the cytosol, during the first 2-5 minutes of stimulation. All data were corrected for background by subtraction of a background trace based on 16 individual background traces and normalized to 1 at the point of addition of 10 μM Forskolin. The data points represent the average of four determinations+SD. The data were extracted as the maximal change in fluorescence during the first five minutes of stimulation. Negative values depict a decrease In fluorescence during the response and positive values and Increase.
The CHO (Chinese hamster ovary) cell line stably expressing the mouse cPKA (catalytic subunit of protein kinase A) tagged with GFP (green fluorescent protein) in its N-terminal end was cultured in 96-well microtiter plates (Packard View-Plate). After 20 min preincubation in KRW (experimental buffer; A modified Krebs-Ringer buffer containing (in mM): NaCl 140, KCl 3.6, NaH2PO4 0.5, MgSO4 0.5, NaHCO3 2.0, CaCl2 1.5 and HEPES 10, D-glucose 5 (pH 7.4, titrated with 1M NaOH)) the cell plate was supplemented with a concentration gradient of Trypan Blue and Acid Red 88 at 0, 10, 50, 100 and 200 μM during the experimental fluorescence recording (4 wells per compound and concentration) in the FLIPR™. […] The data were extracted as the absolute fluorescence change 30 seconds after addition of the two compounds.
The CHO (Chinese hamster ovary) cell line stably expressing the mouse cPKA (catalytic subunit of protein kinase A) tagged with GFP (green fluorescent protein) in its N-terminal end was cultured in 96-well microtiter plates (Packard View-Plate). […] This gives a Type 2 redistribution response (see FIG. 6) in these cells where the redistribution can be quantified as an increase in fluorescence intensity, as cPKA moves from aggregates in the cytosol to a dispersed form in the cytosol, during the first 2-5 minutes of stimulation.

[4] = cited from earlier work; for Molar Absorptivity 488 nm: at 488 nm; for Molar Absorptivity 488 nm / Molar Absorptivity 500-550 nm: estimated from published spectra; for Molar Absorptivity 500-550 nm: average over 500-550 nm; for Wavelength of maxiumum absorbance: published spectra
Solubility in water = format: physicochemical

Row | Structure (SMILES) | maximal enhancement of the response compared to the control ([1]; at 50 μM enhancer, CHO cells, 100 μM ATP) | effect on overall basal fluorescence, type 1 redistribution assay ([1]; concentration dependent, 0-200 μM, no stimulus (FIG. 7)) | increase in the measurable response, type 1 redistribution [1] | increase in signal over the one obtained with Trypan Blue, type 3 redistribution ([2]; maximal, 20 μM Acid Red 88 vs 100 μM Trypan Blue, CHO cells, ATP) | increase in the measurable response, type 3 redistribution [2] | effect on overall basal fluorescence, type 2 redistribution assay ([3]; 0-200 μM, no stimulus (FIG. 10)) | effect on type 2 redistribution response ([3]; 10 μM Forskolin) | effect on type 2 redistribution response at higher concentrations ([3]; above 10 μM, 10 μM Forskolin) | Molar Absorptivity 488 nm [4] | Molar Absorptivity 500-550 nm [4] | Wavelength of maxiumum absorbance [4] | enhancing effect on type 1 redistribution response ([1]; CHO cells, 100 μM ATP, 0-200 μM dye) | maximal enhancement of the response compared to the control ([1]; at 200 μM enhancer, CHO cells, 100 μM ATP) | effect on type 3 redistribution response ([2]; 100 μM Trypan Blue, response barely detectable without the compound) | solubility (Solubility in water)
1 | O=S(=O)([O-])c1ccc(N=Nc2c(O)ccc3ccccc23)c2ccccc12.[Na+] [Acid Red 88] | about 7 fold | reduces overall basal fluorescence | 6-7 fold | 6-7 fold | 7-10 fold | did not reduce the overall basal fluorescence | completely abolished the response at the lowest concentration | reversed it to a fluorescence decrease | 16986 mol^−1-cm^−1 | 14964 mol^−1-cm^−1 | 505 nm |  |  |  | 
2 | O=S(=O)(O)c1cc(S(=O)(=O)O)c2c(/N=N/c3ccccc3)c(O)ccc2c1 [Orange G] |  |  |  |  |  |  |  |  | 13571 mol^−1-cm^−1 | 4524 mol^−1-cm^−1 | 475 nm | enhancing properties up to a concentration of 100 μM; also recorded: inferior to Trypan Blue and much inferior to Acid Red 88 |  |  | 
3 | Cc1cc(-c2ccc(/N=N/c3c(S(=O)(=O)O)cc4cc(S(=O)(=O)O)cc(N)c4c3O)c(C)c2)ccc1/N=N/c1c(S(=O)(=O)O)cc2cc(S(=O)(=O)O)cc(N)c2c1O [Trypan Blue] |  |  | 2-3 fold |  | 1-3 fold |  | reduced it somewhat at higher concentrations; also recorded: no enhancing effect |  | 16014 mol^−1-cm^−1 | 34556 mol^−1-cm^−1 | 607 nm |  | about 3 fold | clearly give a detectable signal | < 100 µg/mL

Reference: patent US20030162165A1, “Chemical signal enhancement of dynamic intensity-based intracellular protein-and fluorophore-based redistribution assays for drug-screening” (priority 2003, published 2003)
